Holding throughout (test): relative viability (nuclei count vs DMSO), 5 days (fraction); higher = more cells survive
Compound in one test: CC(C)=CC[C@@H](O)C1=CC(=O)c2c(O)ccc(O)c2C1=O [Shikonin]
In a few lines: (§1)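 Five library-drug doses spaced by √10 were pinned onto vehicle-anchored 1536-well plates of lung cancer cell lines that had been kept overnight at 37 °C. Cells went 5 days without medium change, then were fixed, permeabilised and Hoechst-stained together, imaged at 4× and counted by MetaXpress. Viability is the ratio of treated-well to vehicle-well nuclei, taken as a median over plates. Plates required control CV below 25% and at least one doubling.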

Compound in test [1]: CC(C)N(CCCNC(=O)Nc1ccc(C(C)(C)C)cc1)C[C@H]1O[C@@H](n2ccc3c(N)ncnc32)[C@H](O)[C@@H]1O
A digest of the protocol: as §1

Compound in the test “Shikonin + Alpelisib”: CC(C)=CC[C@@H](O)C1=CC(=O)c2c(O)ccc(O)c2C1=O [Shikonin] + Cc1nc(NC(=O)N2CCC[C@H]2C(N)=O)sc1-c1ccnc(C(C)(C)C(F)(F)F)c1 [Alpelisib] (partner 2 µM)
In a few lines: (§2)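 Relative viability is defined as nuclei in treated wells over nuclei in vehicle wells. Duplicate plates were run and medians reported. Lung cancer cell lines in 1536-well plates were dosed by pin tool one day after seeding, with one drug or with a fixed anchor-drug dose plus five library-drug doses (not always all listed) in √10 steps, and nuclei were counted after 5 days.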

Compound in test [2]: CC(C)N(CCCNC(=O)Nc1ccc(C(C)(C)C)cc1)C[C@H]1O[C@@H](n2ccc3c(N)ncnc32)[C@H](O)[C@@H]1O + Nc1nc2[nH]cc(CCc3ccc(C(=O)N[C@@H](CCC(=O)O)C(=O)O)cc3)c2c(=O)[nH]1 [Pemetrexed] (partner 0.2 µM)
A digest of the protocol:
as §2

As to EKVX, the relative viability with Shikonin (0.01 µM) is 1; with Shikonin (0.1 µM) it was 0.963; with Shikonin (0.3162 µM), 1.08; with Shikonin (1 µM) it was 0.964; in test [1] (0.08 µM), 1; in test [1] (0.253 µM), 0.934. In addition, the relative viability worked out at 0.932 in test [1] (0.8 µM); 1 in test [1] (2.53 µM); 0.862 in test [1] (8 µM); 0.863 with Shikonin + Alpelisib (first compound 0.01 µM); 0.973 with Shikonin + Alpelisib (first compound 0.1 µM); 1.07 in the test with Shikonin + Alpelisib (first compound 0.3162 µM). In addition, the relative viability is 0.846 with Shikonin + Alpelisib (first compound 1 µM); 0.44 in test [2] (first compound 0.08 µM); 0.325 in test [2] (first compound 0.253 µM); 0.413 in test [2] (first compound 0.8 µM); 0.464 in test [2] (first compound 2.53 µM); 0.404 in test [2] (first compound 8 µM).

For EMC-BAC-2, the relative viability in the test with Shikonin (0.01 µM) came to 0.97; with Shikonin (0.1 µM), 0.997; with Shikonin (0.3162 µM) it was 1.11; in the test with Shikonin (1 µM) it was 1.13; in test [1] (0.08 µM), 0.943; in test [1] (0.253 µM) it was 0.928. In addition, the relative viability in test [1] (0.8 µM) was determined as 1.03; in test [1] (2.53 µM), 0.905; in test [1] (8 µM) it was 0.889; with Shikonin + Alpelisib (first compound 0.01 µM), 0.77; with Shikonin + Alpelisib (first compound 0.1 µM) it was 0.803; with Shikonin + Alpelisib (first compound 0.3162 µM), 0.78. Moreover, the relative viability with Shikonin + Alpelisib (first compound 1 µM) came to 0.747; in test [2] (first compound 0.08 µM), 0.439; in test [2] (first compound 0.253 µM), 0.465; in test [2] (first compound 0.8 µM), 0.432; in test [2] (first compound 2.53 µM) it was 0.431; in test [2] (first compound 8 µM), 0.488.

As for EPLC-272H, the relative viability with Shikonin (0.01 µM) turned out to be 0.906; with Shikonin (0.1 µM) it was 0.974; with Shikonin (0.3162 µM), 1.06; with Shikonin (1 µM) it was 1.09; in test [1] (0.08 µM) it was 0.907; in test [1] (0.253 µM), 0.883. In addition, the relative viability in test [1] (0.8 µM) turned out to be 0.968; in test [1] (2.53 µM) it was 0.936; in test [1] (8 µM), 0.859; with Shikonin + Alpelisib (first compound 0.01 µM), 0.964; with Shikonin + Alpelisib (first compound 0.1 µM), 1.06; with Shikonin + Alpelisib (first compound 0.3162 µM), 0.946. The relative viability worked out at 0.962 with Shikonin + Alpelisib (first compound 1 µM); 0.404 in test [2] (first compound 0.08 µM); 0.303 in test [2] (first compound 0.253 µM); 0.298 in test [2] (first compound 0.8 µM); 0.341 in test [2] (first compound 2.53 µM); 0.396 in test [2] (first compound 8 µM).

In the case of H3255, the relative viability turned out to be 0.978 in the test with Shikonin (0.01 µM); 1.06 with Shikonin (0.1 µM); 1.05 in the test with Shikonin (0.3162 µM); 1.02 with Shikonin (1 µM); 0.876 in test [1] (0.08 µM); 0.929 in test [1] (0.253 µM). The relative viability came to 0.919 in test [1] (0.8 µM); 0.933 in test [1] (2.53 µM); 0.893 in test [1] (8 µM); 0.637 with Shikonin + Alpelisib (first compound 0.01 µM); 0.721 with Shikonin + Alpelisib (first compound 0.1 µM); 0.629 with Shikonin + Alpelisib (first compound 0.3162 µM). The relative viability stood at 0.689 with Shikonin + Alpelisib (first compound 1 µM); 0.569 in test [2] (first compound 0.08 µM); 0.538 in test [2] (first compound 0.253 µM); 0.61 in test [2] (first compound 0.8 µM); 0.562 in test [2] (first compound 2.53 µM); 0.548 in test [2] (first compound 8 µM).

On to HARA, for which the relative viability turned out to be 0.931 in the test with Shikonin (0.01 µM); 1.21 with Shikonin (0.1 µM); 1.07 with Shikonin (0.3162 µM); 1.22 in the test with Shikonin (1 µM); 0.882 in test [1] (0.08 µM); 0.954 in test [1] (0.253 µM). The relative viability in test [1] (0.8 µM) worked out at 0.62; in test [1] (2.53 µM), 0.774; in test [1] (8 µM) it was 0.784; with Shikonin + Alpelisib (first compound 0.01 µM), 0.871; with Shikonin + Alpelisib (first compound 0.1 µM), 0.871; in the test with Shikonin + Alpelisib (first compound 0.3162 µM), 0.923. In addition, the relative viability in the test with Shikonin + Alpelisib (first compound 1 µM) was determined as 0.917; in test [2] (first compound 0.08 µM) it was 0.229; in test [2] (first compound 0.253 µM), 0.293; in test [2] (first compound 0.8 µM), 0.236; in test [2] (first compound 2.53 µM), 0.233; in test [2] (first compound 8 µM), 0.231.

HCC-15: the relative viability with Shikonin (0.01 µM) was determined as 1.06; with Shikonin (0.1 µM), 1.04; in the test with Shikonin (0.3162 µM), 1.12; in the test with Shikonin (1 µM) it was 1.09; in test [1] (0.08 µM) it was 0.938; in test [1] (0.253 µM), 0.986. Moreover, the relative viability in test [1] (0.8 µM) turned out to be 0.786; in test [1] (2.53 µM) it was 0.979; in test [1] (8 µM), 0.914; with Shikonin + Alpelisib (first compound 0.01 µM), 0.881; in the test with Shikonin + Alpelisib (first compound 0.1 µM), 0.949; with Shikonin + Alpelisib (first compound 0.3162 µM), 1.04. For the same cell line, the relative viability with Shikonin + Alpelisib (first compound 1 µM) came out at 0.912; in test [2] (first compound 0.08 µM) it was 0.221; in test [2] (first compound 0.253 µM), 0.225; in test [2] (first compound 0.8 µM), 0.229; in test [2] (first compound 2.53 µM), 0.213; in test [2] (first compound 8 µM), 0.219.

In the case of HCC-44, the relative viability worked out at 1 with Shikonin (0.01 µM); 1.05 with Shikonin (0.1 µM); 1.03 with Shikonin (0.3162 µM); 1.09 in the test with Shikonin (1 µM); 0.989 in test [1] (0.08 µM); 1.04 in test [1] (0.253 µM). Moreover, the relative viability stood at 0.789 in test [1] (0.8 µM); 0.976 in test [1] (2.53 µM); 0.93 in test [1] (8 µM); 0.972 with Shikonin + Alpelisib (first compound 0.01 µM); 0.849 in the test with Shikonin + Alpelisib (first compound 0.1 µM); 0.933 in the test with Shikonin + Alpelisib (first compound 0.3162 µM). Also, the relative viability with Shikonin + Alpelisib (first compound 1 µM) was 0.852; in test [2] (first compound 0.08 µM), 0.662; in test [2] (first compound 0.253 µM) it was 0.654; in test [2] (first compound 0.8 µM), 0.539; in test [2] (first compound 2.53 µM), 0.688; in test [2] (first compound 8 µM), 0.586.

Regarding HCC-78, the relative viability with Shikonin (0.01 µM) is 0.942; in the test with Shikonin (0.1 µM) it was 1.14; in the test with Shikonin (0.3162 µM), 1.04; in the test with Shikonin (1 µM), 1.15; in test [1] (0.08 µM), 1.05; in test [1] (0.253 µM), 0.787. Also, the relative viability in test [1] (0.8 µM) came to 0.942; in test [1] (2.53 µM) it was 0.875; in test [1] (8 µM), 1; with Shikonin + Alpelisib (first compound 0.01 µM), 0.311; with Shikonin + Alpelisib (first compound 0.1 µM) it was 0.347; with Shikonin + Alpelisib (first compound 0.3162 µM) it was 0.352. Further, the relative viability with Shikonin + Alpelisib (first compound 1 µM) is 0.349; in test [2] (first compound 0.08 µM), 0.869; in test [2] (first compound 0.253 µM) it was 0.848; in test [2] (first compound 0.8 µM), 0.928; in test [2] (first compound 2.53 µM) it was 0.844; in test [2] (first compound 8 µM), 0.846.

The values above are taken from the supplement of paper PMC10307832.
